# Test results published in ChEMBL document CHEMBL1201862, “PubChem BioAssay data set” (2004).
#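 96-well plates; 48 h exposure; 5 concentrations. Endpoints by linear interpolation between flanking doses. Not reached: highest tested concentration assigned. GI50 marks 50% less growth.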 Active and inactive are the calls of the source. Rule as the data show it: active = GI50 up to about 1.1 µM and inactive = higher.
# Key:
# Assay in all cases: NCI tumour cell line growth inhibition, 48 h
# ACHN = tested on: ACHN
# NCI-H460 = tested on: NCI-H460
# TK-10 = tested on: TK-10
# A498 = tested on: A498
# HT-29 = tested on: HT-29
# MDA-MB-231 = tested on: MDA-MB-231
# DU-145 = tested on: DU-145
# RXF 393 = tested on: RXF 393
# HCC 2998 = tested on: HCC 2998
# UACC-62 = tested on: UACC-62
# IGROV-1 = tested on: IGROV-1
# SN12C = tested on: SN12C
# HCT-15 = tested on: HCT-15
# SK-MEL-28 = tested on: SK-MEL-28
# NCI-H226 = tested on: NCI-H226
# OVCAR-8 = tested on: OVCAR-8
# BT-549 = tested on: BT-549
# OVCAR-4 = tested on: OVCAR-4
# SK-MEL-5 = tested on: SK-MEL-5
# SR = tested on: SR
Structure (SMILES),GI50 (ACHN),GI50 (NCI-H460),GI50 (TK-10),GI50 (A498),GI50 (HT-29),GI50 (MDA-MB-231),GI50 (DU-145),GI50 (RXF 393),GI50 (HCC 2998),GI50 (UACC-62),GI50 (IGROV-1),GI50 (SN12C),GI50 (HCT-15) [µM],GI50 (SK-MEL-28),GI50 (NCI-H226),GI50 (OVCAR-8),GI50 (BT-549),GI50 (OVCAR-4),GI50 (SK-MEL-5),GI50 (SR)
CCOC(=O)/C=C\c1c(Cl)n(-c2ccccc2)c(=O)n(-c2ccccc2)c1=O,20.7 µM (inactive),18 µM (inactive),18.1 µM (inactive),21.3 µM (inactive),19 µM (inactive),21.2 µM (inactive),18.8 µM (inactive),17.9 µM (inactive),18.5 µM (inactive),18.3 µM (inactive),17.6 µM (inactive),19.6 µM (inactive),19.8,18.9 µM (inactive),20.7 µM (inactive),17.4 µM (inactive),20.2 µM (inactive),30 µM (inactive),–,–
O=C1CC=C2C3CC4N(CCC45c4ccccc4N1C25)C/C3=C\CO (stereo unspecified),> 100 µM (inactive),> 100 µM (inactive),> 100 µM (inactive),> 100 µM (inactive),> 100 µM (inactive),> 100 µM (inactive),> 100 µM (inactive),–,> 100 µM (inactive),> 100 µM (inactive),> 100 µM (inactive),> 100 µM (inactive),> 100,> 100 µM (inactive),> 100 µM (inactive),> 100 µM (inactive),> 100 µM (inactive),> 100 µM (inactive),> 100 µM (inactive),–
N#CCCN(CCC#N)c1ccc(/C=C2\N=C(c3ccccc3)N(NC(=O)c3ccncc3)C2=O)cc1,> 100 µM (inactive),> 100 µM (inactive),> 100 µM (inactive),> 100 µM (inactive),> 100 µM (inactive),> 100 µM (inactive),> 100 µM (inactive),> 100 µM (inactive),–,> 100 µM (inactive),> 100 µM (inactive),> 100 µM (inactive),> 100,> 100 µM (inactive),> 100 µM (inactive),> 100 µM (inactive),> 100 µM (inactive),> 100 µM (inactive),> 100 µM (inactive),–
Cc1ccc(OCCn2cc(Nc3ccccc3)c(=O)n(CCOc3ccc(C)cc3)c2=O)cc1,> 100 µM (inactive),> 100 µM (inactive),48.4 µM (inactive),> 100 µM (inactive),51.1 µM (inactive),69.5 µM (inactive),> 100 µM (inactive),23.5 µM (inactive),> 100 µM (inactive),> 100 µM (inactive),50.8 µM (inactive),> 100 µM (inactive),> 100,> 100 µM (inactive),> 100 µM (inactive),40.6 µM (inactive),> 100 µM (inactive),49.9 µM (inactive),> 100 µM (inactive),–
CC(=O)Nc1ccc(NC(=O)CC(=O)Nc2ccc(NC(C)=O)cc2)cc1,> 100 µM (inactive),> 100 µM (inactive),> 100 µM (inactive),> 100 µM (inactive),> 100 µM (inactive),> 100 µM (inactive),> 100 µM (inactive),–,19.4 µM (inactive),5.74 µM (inactive),> 100 µM (inactive),> 100 µM (inactive),25.8,> 100 µM (inactive),> 100 µM (inactive),> 100 µM (inactive),> 100 µM (inactive),> 100 µM (inactive),> 100 µM (inactive),> 100 µM (inactive)
CCC(C(=O)C(=O)OC)P1(=O)OC(C)(C)CN1C(C)(C)C (stereo unspecified),> 100 µM (inactive),> 100 µM (inactive),> 100 µM (inactive),20.5 µM (inactive),> 100 µM (inactive),> 100 µM (inactive),> 100 µM (inactive),–,> 100 µM (inactive),22.6 µM (inactive),> 100 µM (inactive),–,> 100,11.9 µM (inactive),> 100 µM (inactive),> 100 µM (inactive),> 100 µM (inactive),> 100 µM (inactive),> 100 µM (inactive),> 100 µM (inactive)
CC1=C2C(=O)O[C@@H](c3ccoc3)[C@]2(C)CCC1=O [FRAXINELLONONE],> 100 µM (inactive),> 100 µM (inactive),–,> 100 µM (inactive),–,> 100 µM (inactive),> 100 µM (inactive),–,> 100 µM (inactive),> 100 µM (inactive),> 100 µM (inactive),> 100 µM (inactive),> 100,> 100 µM (inactive),> 100 µM (inactive),> 100 µM (inactive),> 100 µM (inactive),–,> 100 µM (inactive),> 100 µM (inactive)
COc1cccc(CSCC(=O)O)c1,> 100 µM (inactive),> 100 µM (inactive),> 100 µM (inactive),> 100 µM (inactive),> 100 µM (inactive),> 100 µM (inactive),> 100 µM (inactive),> 100 µM (inactive),–,> 100 µM (inactive),> 100 µM (inactive),> 100 µM (inactive),> 100,> 100 µM (inactive),> 100 µM (inactive),> 100 µM (inactive),> 100 µM (inactive),> 100 µM (inactive),> 100 µM (inactive),–
COc1ccc(COCC[C@H](C)OC2OC(CO[Si](C)(C)C(C)(C)C)C(OC(=O)CCCN=[N+]=[N-])C(OC(=O)CCCN=[N+]=[N-])C2OC(=O)CCCN=[N+]=[N-])cc1 (stereo partly specified),–,55.5 µM (inactive),> 100 µM (inactive),> 100 µM (inactive),22.3 µM (inactive),> 100 µM (inactive),> 100 µM (inactive),98.2 µM (inactive),34.4 µM (inactive),58.9 µM (inactive),51.5 µM (inactive),78.3 µM (inactive),28.4,> 100 µM (inactive),8.39 µM (inactive),19.7 µM (inactive),22.2 µM (inactive),27.9 µM (inactive),9.64 µM (inactive),–
O=c1[nH]nc(Cc2ccc([N+](=O)[O-])cc2)[nH]1,> 100 µM (inactive),> 100 µM (inactive),> 100 µM (inactive),> 100 µM (inactive),> 100 µM (inactive),–,> 100 µM (inactive),> 100 µM (inactive),> 100 µM (inactive),> 100 µM (inactive),> 100 µM (inactive),> 100 µM (inactive),> 100,> 100 µM (inactive),> 100 µM (inactive),> 100 µM (inactive),> 100 µM (inactive),> 100 µM (inactive),> 100 µM (inactive),> 100 µM (inactive)
COc1ccc(N2C(=O)CC(c3c[nH]c4ncccc34)C2=O)cc1 (stereo unspecified),21.2 µM (inactive),> 100 µM (inactive),14.2 µM (inactive),58.5 µM (inactive),19.8 µM (inactive),20 µM (inactive),> 100 µM (inactive),23.9 µM (inactive),> 100 µM (inactive),> 50.9 µM (inactive),21.3 µM (inactive),18.5 µM (inactive),24.8,29 µM (inactive),> 100 µM (inactive),19.7 µM (inactive),17.5 µM (inactive),22.8 µM (inactive),> 100 µM (inactive),–
C[C@H](CC[C@@H](O)C(C)(C)O)[C@H]1CC[C@@]2(C)[C@@H]3CC=C4[C@@H](CC[C@H](OC5OC(CO)C(O)C(O)C5O)C4(C)C)[C@]3(C)C(=O)C[C@]12C (stereo partly specified),32.7 µM (inactive),52.4 µM (inactive),60.8 µM (inactive),> 100 µM (inactive),26.1 µM (inactive),> 100 µM (inactive),39 µM (inactive),35.2 µM (inactive),89.7 µM (inactive),58.1 µM (inactive),19.8 µM (inactive),69 µM (inactive),67.9,27.7 µM (inactive),> 100 µM (inactive),> 100 µM (inactive),56.5 µM (inactive),45.3 µM (inactive),39.5 µM (inactive),–
COc1cc2c(cc1O)C1Cc3ccc(OC)c(O)c3C[N+]1(C)CC2 (stereo unspecified),> 100 µM (inactive),> 100 µM (inactive),> 100 µM (inactive),> 100 µM (inactive),> 100 µM (inactive),> 100 µM (inactive),> 100 µM (inactive),> 100 µM (inactive),> 100 µM (inactive),> 100 µM (inactive),> 100 µM (inactive),> 100 µM (inactive),> 100,> 100 µM (inactive),> 100 µM (inactive),> 100 µM (inactive),> 100 µM (inactive),> 100 µM (inactive),> 100 µM (inactive),–
C=CCN(c1cc(OCc2ccccc2)c2c(c1)c(C)cn2S(=O)(=O)c1ccccc1)S(C)(=O)=O,> 100 µM (inactive),> 100 µM (inactive),> 100 µM (inactive),–,> 100 µM (inactive),> 100 µM (inactive),> 100 µM (inactive),> 100 µM (inactive),> 100 µM (inactive),> 100 µM (inactive),> 100 µM (inactive),> 100 µM (inactive),> 100,> 100 µM (inactive),> 100 µM (inactive),> 100 µM (inactive),> 100 µM (inactive),> 100 µM (inactive),> 100 µM (inactive),> 100 µM (inactive)
COc1cc(OCc2nc3ccccc3n3cccc23)cc(OC)c1OC,21.6 µM (inactive),20.5 µM (inactive),32.7 µM (inactive),> 87.5 µM (inactive),28.1 µM (inactive),40.6 µM (inactive),55.8 µM (inactive),> 100 µM (inactive),43.8 µM (inactive),13.8 µM (inactive),20.3 µM (inactive),47 µM (inactive),8.09,22.1 µM (inactive),9.73 µM (inactive),17.1 µM (inactive),19.7 µM (inactive),10.8 µM (inactive),2.42 µM (inactive),–
